Measurements as given in ChEMBL document CHEMBL1150100, “Bruceanols G and H cytotoxic quassinoids from Brucea antidysenterica” (1995).

Experiments:
Format in all cases: functional
Settings in all cases: read-out: ED50 (the source's name)
SK-MEL-5 = experiment: Cytotoxicity against human SK-MEL-5 cells
KB = experiment: Cytotoxicity against human KB cells
COLO 205 = experiment: Cytotoxicity against human COLO205 cells

COC(=O)[C@@]12OC[C@]34[C@H]([C@@H](O)[C@@H]1O)[C@@]1(C)C(=O)[C@@H](O)C[C@@H](C)[C@@H]1C[C@H]3OC(=O)[C@H](OC(=O)/C=C(\C)C(C)C)[C@@H]24 [BRUCEANOL H]
EC50 (SK-MEL-5): 6.37 µM

COC(=O)[C@@]12OC[C@]34[C@H]([C@@H](O)[C@@H]1O)[C@@]1(C)[C@H](O)C(=O)C[C@@H](C)[C@@H]1C[C@H]3OC(=O)[C@H](OC(=O)/C=C(\C)C(C)(C)OC(C)=O)[C@@H]24 [BRUCEANOL G]
EC50 (SK-MEL-5): 4.08 µM
EC50 (KB): 0.55 µM
EC50 (COLO 205): 0.44 µM
